Columns and labels:
Type in all cases: cell-based, human
HCT116 cells [1] = experiment: JC-1 staining, mitochondrial membrane potential by flow cytometry; details: control HCT116 cells, ADR treatment
Experimental: To further define the nature of this cell death response the inventors used another assay, namely flow cytometric detection of cells stained with JC-1. The JC-1-staining identifies cell death events as a result of loss of mitochondria membrane potential (ΔΨm).
(§1) Cells cycle analysis was performed by DNA content quantification. The cells were fixed with 70% ethanol and stained with propidium iodide (50 μg/ml) staining. The stained cells were analyzed by FACScalibur (BD Bioscience). For the BrdU incorporation assay and mitochondrial membrane potential detection, the BrdU Flow Kit and JC-1 staining kit (both from BD Bioscience) were used, respectively, following the instruction manual. Stained cells were analyzed by FACScalibur (BD Bioscience) and quantified by using CellQuest software (BD Bioscience).

HCT116 cells [2] = experiment: Cell cycle and apoptosis analysis by flow cytometry (sub-G1 DNA content)
Experimental: as §1

HCT116 cells [3] = experiment: BrdU incorporation / 7-amino-actinomycin D FACS analysis; details: for cells with a hyperploid DNA content (>4.v): ADR 24 hours
Experimental: Given the increased sensitivity to DNA damage upon RPS27L depletion, the inventors next investigated whether loss of RPS27L could impair the DNA damage checkpoint. […] However, parental cells underwent a dramatic decrease in DNA synthesis (from 85% to 11%) 24 hours after ADR treatment, whereas in HCT116 cells lacking RPS27L, this decrease in DNA synthesis was partially rescued (from 86% to 27%) (FIG. 5A).
as §1

COc1cccc2c1C(=O)c1c(O)c3c(c(O)c1C2=O)C[C@@](O)(C(=O)CO)C[C@@H]3O[C@H]1C[C@H](N)[C@H](O)[C@H](C)O1 [ADR, adriamycin]
percentage of cells with lower membrane potential (ΔΨm) (HCT116 cells [1]): 13.5%
cell cycle and apoptosis response (HCT116 cells [2]; HCT116 p53+/+ and p53−/−, ADR (1 μM) or 5-FU (375 μM) for 48 h): p53-dependent cell cycle arrest
cell death (sub-G1 DNA content) (HCT116 cells [2]; RPS27L depletion in p53 null HCT116 cells, ADR 48 h): did not give rise to the same result
cellular response (HCT116 cells [2]; p53 wild-type HCT116 expressing control shRNA, ADR 48 h): growth arrest response
DNA synthesis (BrdU, cells in S-phase) (HCT116 cells [3]; HCT116 cells lacking RPS27L, 24 hours after ADR treatment (86% before)): 27%
cells with a hyperploid DNA content (>4.v) (HCT116 cells [3]; RPS27L-depleted HCT116 cells): 30%
cells with a hyperploid DNA content (>4.v) (HCT116 cells [3]; control HCT116 cells): 10.5%
hyperploid population (HCT116 cells [3]; p21-depleted HCT116 cells after ADR treatment): no increased hyperploid population
DNA synthesis (BrdU, cells in S-phase) (HCT116 cells [3]; parental (control) HCT116 cells, 24 hours after ADR treatment (85% before)): 11%
